Measurements: publication PMC11012124, “Synthesis of Novel Triazine-Based Chalcones and 8,9-dihydro-7H-pyrimido[4,5-b][1,4]diazepines as Potential Leads in the Search of Anticancer, Antibacterial and Antifungal Agents” (International Journal of Molecular Sciences, 2024)

Key:
SF-295 = assay: cells; settings: Homo sapiens, SF-295, 48 h
U251 = assay: cells; settings: Homo sapiens, U-251, 48 h
UO-31 = assay: cells; settings: Homo sapiens, UO-31, 48 h
M14 = assay: cells; settings: Homo sapiens, M14, 48 h
ACHN = assay: cells; settings: Homo sapiens, 48 h
UACC-257 = assay: cells; settings: Homo sapiens, UACC-257, 48 h
HCT-116 = assay: cells; settings: Homo sapiens, HCT-116, 48 h
COLO 205 = assay: cells; settings: Homo sapiens, COLO 205, 48 h
HS 578T = assay: cells; settings: Homo sapiens, 48 h
MCF7 = assay: cells; settings: Homo sapiens, MCF7, 48 h
RPMI-8226 = assay: cells; settings: Homo sapiens, RPMI-8226, 48 h
60 cancer cell lines = assay: NCI-60 one-dose screen (10 μM); type: cell-based; settings: Homo sapiens; one dose of 10 μM, mean over 60 cancer cell lines; read-out: Mean Growth Percent (MGP)
Source text: Additionally, the mean of the growth percentages (MGP) of each compound against all the 60 cancer cell lines is also reported, which is used as one of the selection criteria to continue with tests at five concentration doses.

SF-268 = assay: cells; settings: Homo sapiens, SF-268, 48 h
OVCAR-3 = assay: cells; settings: Homo sapiens, OVCAR-3, 48 h
BT-549 = assay: cells; settings: Homo sapiens, BT-549, 48 h
NCI-H226 = assay: cells; settings: Homo sapiens, NCI-H226, 48 h
MDA-MB-435 = assay: cells; settings: Homo sapiens, MDA-MB-435, 48 h
CCRF-CEM = assay: cells; settings: Homo sapiens, 48 h
EKVX = assay: cells; settings: Homo sapiens, 48 h
LOX IMVI = assay: cells; settings: Homo sapiens, 48 h
MALME-3M = assay: cells; settings: Homo sapiens, 48 h
UACC-62 = assay: cells; settings: Homo sapiens, UACC-62, 48 h
HL-60(TB) = assay: cells; settings: Homo sapiens, HL-60, 48 h
DU-145 = assay: cells; settings: Homo sapiens, DU-145, 48 h
OVCAR-5 = assay: cells; settings: Homo sapiens, OVCAR-5, 48 h
OVCAR-4 = assay: cells; settings: Homo sapiens, OVCAR-4, 48 h
OVCAR-8 = assay: cells; settings: Homo sapiens, OVCAR-8, 48 h
SF-539 = assay: cells; settings: Homo sapiens, SF-539, 48 h
HT29 = assay: cells; settings: Homo sapiens, HT-29, 48 h
[1] = Hemolytic activity, spectrophotometric; type: cell-based, human; settings: human, human red blood cells (huRBC), 5% hematocrit, 200 μg/mL, 37 °C
HOP-62 = assay: cells; settings: Homo sapiens, HOP-62, 48 h
MOLT-4 = assay: cells; settings: Homo sapiens, MOLT-4, 48 h
T-47D = assay: cells; settings: Homo sapiens, T47D, 48 h
MDA-MB-231/ATCC = assay: cells; settings: Homo sapiens, MDA-MB-231, 48 h
A498 = assay: cells; settings: Homo sapiens, A498, 48 h
PC-3 = assay: cells; settings: Homo sapiens, PC-3, 48 h
NCI-H322M = assay: cells; settings: Homo sapiens, 48 h
SN12C = assay: cells; settings: Homo sapiens, 48 h

COc1cc(/C=C/C(=O)c2ccc(S(=O)(=O)NCCNc3nc(N(C)C)nc(N4CCOCC4)n3)cc2)cc(OC)c1OC [23d]
GI50 (SF-295): 3.04 µM
CC50 (SF-295; read-out: LC50): 57.8 µM
GI50 (U251; U251, 48 h): 1540 nM
CC50 (U251; read-out: LC50): 5.54 µM
GI50 (UO-31): 1570 nM
CC50 (UO-31; read-out: LC50): 6.32 µM
GI50 (M14): 2180 nM
CC50 (M14; read-out: LC50): 26.9 µM
GI50 (ACHN): 1780 nM
CC50 (ACHN; read-out: LC50): 6.75 µM
GI50 (UACC-257): 5.86 µM
CC50 (UACC-257; read-out: LC50): 43 µM
GI50 (HCT-116): 1560 nM
CC50 (HCT-116; read-out: LC50): 5.92 µM
GI50 (COLO 205): 2140 nM
CC50 (COLO 205; read-out: LC50): 16.6 µM
GI50 (HS 578T): 2290 nM
CC50 (HS 578T; read-out: LC50): > 100 µM
GI50 (MCF7): 1640 nM
CC50 (MCF7; read-out: LC50): 9.66 µM
GI50 (RPMI-8226): 1390 nM
CC50 (RPMI-8226; read-out: LC50): > 100 µM
activity at 10 µM (60 cancer cell lines): -32.7%
GI50 (SF-268): 3.16 µM
CC50 (SF-268; read-out: LC50): 77.2 µM
GI50 (OVCAR-3): 2020 nM
CC50 (OVCAR-3; read-out: LC50): 8.84 µM
GI50 (BT-549): 2010 nM
CC50 (BT-549; read-out: LC50): 6.91 µM
GI50 (NCI-H226): 11.4 µM
CC50 (NCI-H226; read-out: LC50): 72.4 µM
GI50 (MDA-MB-435): 1900 nM
CC50 (MDA-MB-435; read-out: LC50): 8.46 µM
GI50 (CCRF-CEM): 2070 nM
CC50 (CCRF-CEM; read-out: LC50): > 100 µM
GI50 (EKVX): 3.74 µM
CC50 (EKVX; read-out: LC50): 82.3 µM
GI50 (LOX IMVI): 1640 nM
CC50 (LOX IMVI; read-out: LC50, LOX IMVI, 48 h): 5.76 µM
GI50 (MALME-3M): 1970 nM
CC50 (MALME-3M; read-out: LC50): 9.42 µM
GI50 (UACC-62): 2140 nM
CC50 (UACC-62; read-out: LC50): 22.8 µM
GI50 (HL-60(TB)): 1970 nM
CC50 (HL-60(TB); read-out: LC50): > 100 µM
GI50 (DU-145): 3.31 µM
CC50 (DU-145; read-out: LC50): 34.1 µM
GI50 (OVCAR-5): 2830 nM
CC50 (OVCAR-5; read-out: LC50): 33.7 µM
GI50 (OVCAR-4): 2210 nM
CC50 (OVCAR-4; read-out: LC50): 24.8 µM
GI50 (OVCAR-8): 2300 nM
CC50 (OVCAR-8; read-out: LC50): 36.5 µM
GI50 (SF-539): 1810 nM
CC50 (SF-539; read-out: LC50, SF-539, 48 h): 6.29 µM
GI50 (HT29): 1720 nM
CC50 (HT29; read-out: LC50): 5.93 µM
hemolysis at 24 h, 200 µg/mL [1]: 0.2%
GI50 (HOP-62): 2660 nM
CC50 (HOP-62; read-out: LC50): 32.1 µM
GI50 (MOLT-4): 2230 nM
CC50 (MOLT-4; read-out: LC50): > 100 µM
GI50 (T-47D): 5.74 µM
CC50 (T-47D; read-out: LC50): 71.5 µM
GI50 (MDA-MB-231/ATCC): 2900 nM
CC50 (MDA-MB-231/ATCC; read-out: LC50): 36.7 µM
GI50 (A498): 14.2 µM
CC50 (A498; read-out: LC50): 52.6 µM
GI50 (PC-3): 3.76 µM
CC50 (PC-3; read-out: LC50): > 100 µM
GI50 (NCI-H322M): 7.82 µM
CC50 (NCI-H322M; read-out: LC50): 48.5 µM
GI50 (SN12C): 2720 nM
CC50 (SN12C; read-out: LC50): 38.1 µM
